We go through two compounds from PMC8596998, “The Introduction of a Cysteine Residue Modulates The Mechanical Properties of Aromatic‐Based Solid Aggregates and Self‐Supporting Hydrogels” (Chemistry (Weinheim an Der Bergstrasse, Germany), 2021).

≈ marks a conversion by molar mass, not a printed value. Square brackets hold non-standard residues; d marks the D form. Ends that are not written are not given here. Peptide text beside a SMILES is read from it. AEEA = NCCOCCOCC(=O)O

Data set [1] can be described thus: Water solubility of peptides. It is filed as physicochemical. An excerpt: Both the peptide derivatives were synthetized using solid phase peptide synthesis protocols (SPPS) with Fmoc/OtBu strategy. After their purification by RP‐HPLC chromatography, peptides were characterized by ESI mass spectrometry (see Figure S8). The logP values, estimated using the ACD Lab ChemSketch software, predict the intrinsic water solubility of peptides. […] A diametric behaviour was noted using the organic solvent 1,1,1,3,3,3‐hexafluoro‐isopropan‐2‐ol (HFIP).[[11a], [12]] Indeed, in HFIP the peptide FYFCFYF is highly soluble (up to 200 mg/mL), whereas PEG8‐FYFCFYF is moderately soluble (up to 5 mg/mL). According to their different solubility, peptide solutions were prepared using two approaches: PEG8‐FYFCFYF solutions were prepared by a direct dissolution of the lyophilized powder in water, whereas FYFCFYF ones were obtained by dilution in water of a HFIP stock solution (100 mg/mL). […] Peptide concentration was then analytically quantified using UV‐Vis spectroscopy. Preliminarily, we evaluated the capability of both the peptides to aggregate in solution (at 2.0 mg/mL) using the Dynamic Light Scattering (DLS) technique. […] The formation of nanoarchitectures was further investigated by fluorescence spectroscopy. Despite the presence of four Phe residues in the peptides, their self‐assembling propensity cannot be evaluated by simply considering the Phe excimer formation. […]

Data set [2] can be described thus: Gelification, inverted test tube (CGC, gelation time, shelf stability, syneresis). It counts as physicochemical. The source says: Interconnected fibers network can generate self‐supporting hydrogels as a consequence of additional physical cross‐linking phenomena or chemical modifications. In the specific case of peptide‐based HGs, these materials are formed by further entanglement of supramolecular fibrillary structures, which can be induced by increasing the total sample concentration, and as a consequence, the number of fibers and their mutual contacts.[21] During the preparation of FYFCFYF solutions, we observed a viscosity degree that increases proportionally to the peptide concentration. […] As reported in Figure S12, the critical gelation concentration (CGC) for FYFCFYF can be identified in the range 0.5 wt%<CGC<1.0 wt%. […] However, the characterization of others analogues of (FY)3 and PEG8‐(FY)3 [eg. (F‐Dopa)3 and (Nal‐Dopa)3 and their PEGylated versions PEG8‐(F‐Dopa)3 and PEG8‐(Nal‐Dopa)3] highlighted a diametrically opposed behavior respect to (FY)3.[10] All these evidences point out the importance of the hydrophilic/hydrophobic balance in the peptide sequence in the gelification process. Moreover, it is possible that the Cys side chain plays a role in the confinement and retention of water molecules in the gel. The stability of the FYFCFYF hydrogel (macroscopically evaluated in terms of homogeneity, opacity and reproducibility) and its capability to hold water (as difference between the weight of the matrix before and after an incubation in water overnight at room temperature) were evaluated by the swelling value q (See Equation (1)).[22] […] The shelf stability was also evaluated via inverted test tube. […]
The formation of an additional chemical network affects also on the CGC and swelling features. […] The efficiency of oxidation procedure was evaluated using the well‐assessed Ellman's test.[24] Ellman's reagent (5,5’‐dithio‐bis‐(2‐nitrobenzoic acid)) also known as DTNB, is a chromogenic compound used to quantify free sulfhydryl groups in solution. […] Thus, free thiol concentration can be indirectly determined by TNB UV‐Vis absorption at 412 nm. […]

One may read the solubility as the dissolved amount per volume that the medium holds. A low value points to a poorly soluble substance. Consider `NCCOCCOCC(=O)NCCOCCOCC(=O)NCCOCCOCC(=O)NCCOCCOCC(=O)N[C@@H](Cc1ccccc1)C(=O)N[C@@H](Cc1ccc(O)cc1)C(=O)N[C@@H](Cc1ccccc1)C(=O)N[C@@H](CS)C(=O)N[C@@H](Cc1ccccc1)C(=O)N[C@@H](Cc1ccc(O)cc1)C(=O)N[C@@H](Cc1ccccc1)C(N)=O` [PEG8‐FYFCFYF] (H-[AEEA][AEEA][AEEA][AEEA]FYFCFYF-NH2), for which the solubility in data set [1] is about 10000 µg/mL (≈ 6.19 mM).

As to FYFCFYF-NH2 [FYFCFYF], the figures for the shelf stability in data set [2] (hydrogel 1.0 wt%), in data set [2] (hydrogel 1.5 wt%) and in data set [2] (hydrogel 2.0 wt%) were 20 days, “up to 40 days” and “up to 65 days”, respectively. Moreover, the solubility in data set [1] stood at 240 µg/mL.
